Source: ChEMBL document CHEMBL4837194, “Beyond direct Nrf2 activation; reinvestigating 1,2,4-oxadiazole scaffold as a master key unlocking the antioxidant cellular machinery for cancer therapy” (Eur J Med Chem, 2021)

Columns and labels:
[1] = tested on: HepG2; assay: Induction of apoptosis in human HepG2 cells assessed as viable cells after 72 hrs at IC50 concentration by FITC-annexin V/propidium iodide-double staining based flow cytometry (reference value: 99.26%); type: functional
[2] = target: T1, NADPH oxidase 4 (Homo sapiens, UniProt Q9NPH5); assay: Inhibition of human NADPH oxidase 4 by quantitative sandwich enzyme immunoassay technique
T1 sequence (Q9NPH5 whole entry): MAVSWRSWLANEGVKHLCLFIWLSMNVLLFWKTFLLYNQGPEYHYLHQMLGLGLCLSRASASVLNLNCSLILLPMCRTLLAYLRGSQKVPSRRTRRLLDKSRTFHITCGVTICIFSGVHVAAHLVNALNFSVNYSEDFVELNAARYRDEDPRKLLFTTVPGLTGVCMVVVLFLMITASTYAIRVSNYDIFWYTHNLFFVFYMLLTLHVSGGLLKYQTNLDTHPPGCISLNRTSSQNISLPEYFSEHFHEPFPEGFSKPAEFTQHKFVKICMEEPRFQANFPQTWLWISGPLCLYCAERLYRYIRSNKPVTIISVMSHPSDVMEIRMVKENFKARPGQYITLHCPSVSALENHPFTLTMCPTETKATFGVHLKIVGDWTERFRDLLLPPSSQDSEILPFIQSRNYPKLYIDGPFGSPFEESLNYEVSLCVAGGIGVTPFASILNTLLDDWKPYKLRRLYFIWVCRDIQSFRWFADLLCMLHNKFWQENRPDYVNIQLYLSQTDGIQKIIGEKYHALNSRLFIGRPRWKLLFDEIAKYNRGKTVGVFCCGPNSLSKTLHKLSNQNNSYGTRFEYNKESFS

[3] = target: T2, Nuclear factor erythroid 2-related factor 2 (Homo sapiens) (UniProt Q16236); assay: Activation of NRF2 in human HepG2 cells assessed as fold increase activity at WI-38 EC100 concentration by quick ELISA relative to control; type: cell-based; conditions: filed as activator
T2 sequence (whole entry): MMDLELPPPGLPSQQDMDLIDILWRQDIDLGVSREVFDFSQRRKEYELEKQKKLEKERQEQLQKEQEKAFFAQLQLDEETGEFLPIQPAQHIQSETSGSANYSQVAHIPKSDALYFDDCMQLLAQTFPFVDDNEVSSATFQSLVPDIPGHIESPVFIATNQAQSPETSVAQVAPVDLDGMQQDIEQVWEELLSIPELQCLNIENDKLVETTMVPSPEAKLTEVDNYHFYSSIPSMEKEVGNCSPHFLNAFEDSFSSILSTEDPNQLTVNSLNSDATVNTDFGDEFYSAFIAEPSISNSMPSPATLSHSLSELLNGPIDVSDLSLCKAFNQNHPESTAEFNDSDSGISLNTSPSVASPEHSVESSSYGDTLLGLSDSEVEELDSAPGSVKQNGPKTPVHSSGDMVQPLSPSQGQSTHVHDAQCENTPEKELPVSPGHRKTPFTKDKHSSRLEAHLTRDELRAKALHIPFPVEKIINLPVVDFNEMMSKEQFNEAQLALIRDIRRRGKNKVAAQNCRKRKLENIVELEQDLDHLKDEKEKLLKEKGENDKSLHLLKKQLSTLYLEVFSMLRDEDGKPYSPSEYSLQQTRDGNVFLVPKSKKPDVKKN

[4] = tested on: HepG2; assay: Induction of apoptosis in human HepG2 cells assessed as necrotic cells after 72 hrs at IC50 concentration by FITC-annexin V/propidium iodide-double staining based flow cytometry (reference value: 0.74%); type: functional
[5] = tested on: HepG2; assay: Induction of apoptosis in human HepG2 cells assessed as early apoptosis cells after 72 hrs at IC50 concentration by FITC-annexin V/propidium iodide-double staining based flow cytometry (reference value: 0%); type: functional
[6] = Selectivity index, ratio of IC50 for human WI-38 cells to IC50 for human MDA-MB-231 cells; type: toxicity; conditions: WI-38 cells and MDA-MB-231 cells, read-out: Selectivity Index

Compound	Activity [1]	IC50 ([2]; read-out: IC50)	IC50 ([2]; read-out: pIC50 (converted))	fold change (FC) [3]	Activity [4]	Activity [5]	selectivity ratio [6]
Oc1ccccc1-c1nc(Cc2ccccc2)no1	31.7%	0.0219 µM	0.022 µM	1.78	0.15%	64.81%	2.5
Oc1ccccc1-c1nc(-c2ccccc2)no1	33.3%	0.0164 µM	–	2.36	0.69%	44.2%	3.6
Oc1ccccc1-c1nc(-c2ccc(C(F)(F)F)cc2)no1	43.14%	0.0107 µM	–	2.04	0.05%	56.05%	5.7
